# Test results as given in publication PMC8418037, “Immunomodulatory effect of standardized C. asiatica extract on a promotion of regulatory T cells in rats” (BMC Complementary Medicine and Therapies, 2021).
# Tests used:
# [1] = system: multidrug-resistant protein 2; set-up: method as in PMID 24091240; details: affecting the level of absorbed compound; cited from earlier work
# [2] = rat, in vivo
# Procedure: Rats, weighing more than 400 g, were put in metabolic cages and fasted overnight with free access to water before experiments. […] The intravenous preparations were freshly dissolved in 20% DMSO/NSS for injection. The oral preparations were freshly prepared by suspending the test compound in 0.5% CMC. To reduce pain and injury during drug administration and blood collection, rats were anesthetized with 5% isoflurane by chamber induction. Serial blood samples (300 μL) were collected at 0, 5, 15, and 30 min, and at 1, 2, 4, 8, and 24 h after dosing. Blood samples were centrifuged at 5000 g for 10 min, and plasma was collected and stored at − 20 °C until analysis. Determination of aspartate transaminase (AST), alanine transaminase (ALT), and creatinine levels were performed at pre-dosing, and at 0 h and 24 h after dosing. Creatinine level was determined by enzymatic Roche Cobas 6000 analyzer. In this enzymatic method creatinine is converted to creatine under the activity of creatininase. Creatine is then acted upon by creatinase to form sarcosine and urea. Sarcosine oxidase converts sarcosine to glycine and hydrogen peroxide, and the hydrogen peroxide reacts with chromophore in the presence of peroxidase to produce a color product that is measured at 546 nm (secondary wavelength = 700 nm). This is an endpoint reaction that agrees well with recognized HPLC methods, and it has the advantage over Jaffe picric acid-based methods that are susceptible to interferences from non-creatinine chromogens. For tissue collection, the rats was euthanized with isoflurane after oral dosing the test compound at 100 mg/kg for 7 days. After the dead was confirmed, spleen and blood were immediately collected, washed with normal saline solution, and send to immunology laboratory for further experiments. The control group received oral gavage of 0.5% CMC as vehicle control. All animal procedures were complied with the ethical principles and guidelines for the use of animals (National Research Council of Thailand, 2015).
# All pharmacokinetic parameters were computed by non-compartmental analysis using PK Solution 2.0 software (Summit Research Service, USA). […] The absolute oral bioavailability was calculated as (AUCp.o. ÷ dose p.o.) ÷ (AUCi.v. ÷ dose i.v.). Pharmacokinetic data are presented as mean ± standard deviation. Blood chemical parameters were analyzed by Mann–Whitney U-test to compare the significance of differences between pre-dosing and 24 h post-dosing, with a p-value of less than 0.05. All statistical analyses were calculated using SPSS version 16 (SPSS, Inc., USA). […] The data were analyzed with an unpaired Student’s t-test. A p-value of < 0.05 was considered statistically significant.
# [3] = system: P-glycoprotein; set-up: method as in PMID 24091240; details: affecting the level of absorbed compound; cited from earlier work
smiles,measurement,setting,value
"C[C@H]1[C@H](C)CC[C@]2(C(=O)O[C@@H]3O[C@H](CO[C@@H]4O[C@H](CO)[C@@H](O[C@@H]5O[C@@H](C)[C@H](O)[C@@H](O)[C@H]5O)[C@H](O)[C@H]4O)[C@@H](O)[C@H](O)[C@H]3O)CC[C@]3(C)C(=CC[C@@H]4[C@@]5(C)C[C@@H](O)[C@H](O)[C@@](C)(CO)[C@@H]5[C@H](O)C[C@]43C)[C@H]12 [Madecassoside, madecassoside]",Substrate for multidrug-resistant protein 2,[1],substrate
same,"ALT, Post-dose (24 h)",[2],24.00 ± 4.85 U/L
same,"ALT, Pre-dose (0 h)",[2],23.80 ± 2.59 U/L
same,"AST, Post-dose (24 h)",[2],63.20 ± 16.81 U/L
same,"AST, Pre-dose (0 h)",[2],46.20 ± 4.87 U/L
same,"Creatinine, Post-dose (24 h)",[2],0.67 ± 0.05 mg/dL
same,"Creatinine, Pre-dose (0 h)",[2],0.64 ± 0.04 mg/dL
same,"Physical appearance, Post-dose (24 h)",[2],Normal
same,"Physical appearance, Pre-dose (0 h)",[2],Normal
same,Substrate for P-glycoprotein,[3],substrate
